Measurements reported in patent US5028607A, “Bis(aryl)alkene compounds” (Adir et Compagnie, priority 1989, dated 1991).
Counter-ions that a name gives are not always drawn. Like-named read-outs stand apart in the source and are kept apart here.

Key:
5-hydroxytryptophan = assay: 5-HTP antagonism (symptoms induced by 5-hydroxytryptophan); format: in vivo, rats (female Wistar); conditions: Rattus norvegicus
Procedure: The animals are then placed under observation in transparent cages. Three parameters are assessed in the study: "forepaw treading", "flat body posture" and "head twitches". "Forepaw treading" corresponds to a pedaling motion of the forelimbs. This parameter is measured 80 minutes after the administration of […] and during a 10-minute observation period. […] This parameter is assessed throughout the period of observation of the animals.

α1 = α1 antagonism (inhibition of phenylephrine hypertensive response, pithed rats); format: in vivo, rats (male Sprague-Dawley); conditions: cumulative doses, phenylephrine 4 g/kg i.v., Tertatolol 100 μg/kg i.v. pretreatment
Excerpt: α1 antagonism Male Sprague-Dawley rats (300-400 g) which have been subjected to a water diet are anesthetized with ethyl ether. A cannula is placed in the trachea. The spinal cord is destroyed by means of a steel rod and artificial respiration is instituted at once. The vagus nerves are sectioned. The carotid arteries are ligated and a catheter is placed in one of them to record the arterial blood pressure. A second catheter is placed in the vein of the penis and is used for the injections. The animals' temperature is taken and is maintained at 36° C. The rats are pretreated with a β-blocker (Tertatolol 100 μg/kg i.v.). Phenylephrine is injected at a dose of […] i.v. Two identical injections are performed, separated by an interval of 10 minutes. The compounds of the invention are injected at the lowest dose and injection of phenylephrine is performed again 10 minutes later. 3 or 4 cumulative doses of the compounds of the invention are tested in the same manner. The values for the percentage inhibition of the hypertensive response which are obtained at the different doses are calculated in order to determine the ID50.

5-HT2 = target: T1, 5-HT2 (Rattus norvegicus, UniProt P14842); assay: 5-HT2 antagonism (inhibition of 5-hydroxytryptamine hypertensive response, anesthetized rats); format: in vivo, rats (male Sprague-Dawley); conditions: iv, cumulative doses, 5-hydroxytryptamine 100 μg/kg i.v., rats pretreated with d-tubocurarine and prazosin, read-out: ID50, dose inhibiting the hypertensive response by 50%
T1 construct: from tissue; host or cells: whole anesthetized male Sprague-Dawley rat; vasculature (blood pressure response)
T1 sequence (P14842 whole entry): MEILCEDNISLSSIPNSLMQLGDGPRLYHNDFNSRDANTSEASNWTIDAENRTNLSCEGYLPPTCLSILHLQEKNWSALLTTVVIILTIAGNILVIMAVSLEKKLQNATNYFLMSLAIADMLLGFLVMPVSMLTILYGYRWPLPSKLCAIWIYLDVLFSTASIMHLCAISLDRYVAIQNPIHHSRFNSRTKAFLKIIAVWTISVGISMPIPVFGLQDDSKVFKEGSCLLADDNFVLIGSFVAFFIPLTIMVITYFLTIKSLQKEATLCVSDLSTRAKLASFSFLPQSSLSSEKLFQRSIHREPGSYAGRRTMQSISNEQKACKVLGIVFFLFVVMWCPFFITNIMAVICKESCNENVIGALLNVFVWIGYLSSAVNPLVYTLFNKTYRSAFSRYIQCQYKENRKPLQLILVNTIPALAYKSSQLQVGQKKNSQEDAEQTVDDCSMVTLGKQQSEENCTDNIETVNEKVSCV
Procedure: Male Sprague-Dawley rats (350-400 g) are anesthetized i.p. with pentobarbital (45 mg/kg). The trachea is cannulated and the animals are subjected to artificial respiration. The vagus nerves are sectioned. A catheter is placed in a carotid artery to record the arterial blood pressure. A second catheter is placed in the vein of the penis and is used for the injections. The animals' temperature is taken and is maintained at 37° C. The rats are pretreated with d-tubocurarine (1 mg/kg i.v.) and prazosin (1 mg/kg i.v.). 5-Hydroxytryptamine is injected i.v. at a dose of 100 μg/kg twice, separated by an interval of 10 minutes, so as to determine the rise in the systolic arterial blood pressure of each rat. 10 minutes later, the compounds of the invention are injected at the lowest dose and injection of 5-hydroxytryptamine is performed again 10 minutes later. 3 or 4 cumulative doses of the compounds of the invention are tested in the same manner. The percentages of the hypertensive response which are obtained at the different doses are calculated in order to determine the ID50, the dose inhibiting the hypertensive response by 50%.

[1] = sc, 80 min, compounds subcutaneously, 5-hydroxytryptophan 320 mg/kg by gavage, scored at 80 minutes, read-out: ED50 FPT (forepaw treading)
[2] = sc, 1.5 h, read-out: ED50 HT (head twitches)
[3] = sc, compounds subcutaneously, 5-hydroxytryptophan 320 mg/kg by gavage, read-out: ED50 FBP (flat body posture)
[4] = po, 80 min, compounds orally, 5-hydroxytryptophan 320 mg/kg by gavage, scored at 80 minutes, read-out: ED50 FPT (forepaw treading)
[5] = po, 1.5 h, read-out: ED50 HT (head twitches)
[6] = po, compounds orally, 5-hydroxytryptophan 320 mg/kg by gavage, read-out: ED50 FBP (flat body posture)
[7] = ip, 80 min, compounds intraperitoneally, 5-hydroxytryptophan 320 mg/kg by gavage, scored at 80 minutes, read-out: ED50 FPT (forepaw treading)
[8] = ip, 1.5 h, read-out: ED50 HT (head twitches)
[9] = ip, compounds intraperitoneally, 5-hydroxytryptophan 320 mg/kg by gavage, read-out: ED50 FBP (flat body posture)

Fc1ccc(C(=C2CCN(CCCN3CCN(c4ncccn4)CC3)CC2)c2ccc(F)cc2)cc1 [EXAMPLE 7, 1-{3-[4-Bis(4-fluorophenyl)methylene]piperidino]propyl}-4-(2-pyrimidinyl)piperazine dihydrochloride]
ED50 (5-hydroxytryptophan; [1]): 5 mg/kg | ED50 (5-hydroxytryptophan; [2]): > 10 mg/kg | ED50 (5-hydroxytryptophan; [3]): 5 mg/kg

Cc1nc2c(C(N)=O)ncn2c(O)c1CCN1CCCC(C=C(c2ccc(F)cc2)c2ccc(F)cc2)C1 (centres unmarked) [EXAMPLE 23, 3-{2-[3-[2,2-Bis(4-fluorophenyl)vinylene]piperidino]ethyl}-8-carbamoyl-4-hydroxy-2-methylimidazo[1,5-a]-pyrimidinehydrochloride]
ID50, inhibition of the hypertensive response to phenylephrine (α1): > 5 mg/kg

O=c1[nH]c2ccccc2c(=O)n1CCN1CCCC(=C(c2ccc(F)cc2)c2ccc(F)cc2)CC1 [EXAMPLE 25, 3-{2-[4-[Bis(4-fluorophenyllmethylene]perhydroazepin-1-yl]ethyl}-2,4-dioxo-1,2,3,4-tetrahydrocuinazoline hydrochloride]
ID50, inhibition of the hypertensive response to phenylephrine (α1): 3.05 mg/kg

Cc1nc2c(C#N)ncn2c(O)c1CCN1CCC(=C(c2ccc(F)cc2)c2ccc(F)cc2)CC1 [EXAMPLE 11, 3-{2-[4-Bis(4-fluorophenyl)methylene]piperidino]ethyl}-8-cyano-4-hydroxy-2-methylimidazo[1,5-a]-pyrimidine hydrochloride]
ED50 (5-hydroxytryptophan; [4]): 5 mg/kg | ED50 (5-hydroxytryptophan; [5]): 10 mg/kg | ED50 (5-hydroxytryptophan; [6]): 1.25 mg/kg | ID50, inhibition of the hypertensive response to phenylephrine (α1): > 5 mg/kg

O=C1CN(Cc2ccccc2F)CC(=O)N1CCCN1CCC(=C2c3ccccc3-c3ccccc32)CC1 [EXAMPLE 6, 1-{3-[4-(9-Fluorenylidenyl)piperidino]propyl}-4-(2-fluorobenzyl)-2,6-piperazinedione hydrochloride]
ED50 (5-HT2): 0.039 mg/kg | ED50 (5-hydroxytryptophan; [4]): 5 mg/kg | ED50 (5-hydroxytryptophan; [6]): 2.5 mg/kg

Cl.O=C1CN(Cc2ccccc2F)CC(=O)N1CCCN1CCC(=C(c2ccccc2)c2ccc(F)cc2)CC1 [EXAMPLE 5, 4-(2-Fluorobenzyl)-1-{3-[4-[(4-fluorophenyl)phenylmethylene]piperidino]propyl}-2,6-piperazinedione hydrochloride]
ED50 (5-HT2): 0.034 mg/kg

O=C1CN(Cc2ccccc2F)CC(=O)N1CCCN1CCC(C=C(c2ccc(F)cc2)c2ccc(F)cc2)C1 (centres unmarked) [EXAMPLE 8, 1-{3-[3-[2,2-bis(4-fluorophenyl)vinylene]-1-pyrrolidinyl]propyl}-4-(2-fluorobenzyl)-2,6-piperazinedione dihydrochloride]
ID50, inhibition of the hypertensive response to phenylephrine (α1): 5.3 mg/kg

Cc1nc2c(C(N)=O)ncn2c(O)c1CCN1CCC(=C(c2ccccc2)c2ccc(F)cc2)CC1.Cl [EXAMPLE 3, 8-Carbamoyl-3-{2-[4-[(4-fluorophenyl)phenylmethylene]piperidino]ethyl}-4-hydroxy-2-methylimidazo[1,5-a]-pyrimidine hydrochloride]
ED50 (5-HT2): 0.024 mg/kg | ED50 (5-hydroxytryptophan; [1]): 10 mg/kg | ED50 (5-hydroxytryptophan; [3]): 10 mg/kg | ID50, inhibition of the hypertensive response to phenylephrine (α1): > 5 mg/kg

Cc1nc2c(C#N)ncn2c(O)c1CCN1CCC(=C(c2ccccc2)c2ccc(F)cc2)CC1.Cl [EXAMPLE 4, 8-Cyano-3-{2-[4-[(4-fluorophenyl)phenylmethylene]piperidino]ethyl}-4-hydroxy-2-methylimidazo[1,5-a]-pyrimidine hydrochloride]
ED50 (5-hydroxytryptophan; [4]): 1.25 mg/kg | ED50 (5-hydroxytryptophan; [5]): 10 mg/kg | ED50 (5-hydroxytryptophan; [6]): 1.25 mg/kg | ID50, inhibition of the hypertensive response to phenylephrine (α1): > 5 mg/kg

O=C1CN(Cc2ccccn2)CC(=O)N1CCCN1CCC(=C(c2ccccc2)c2ccc(F)cc2)CC1 [EXAMPLE 10, 1-{3-4-(4-Fluorophenyl)phenylmethylene]piperidino]propyl}-4-(2-pyridylmethyl)-2,6-piperazinedione dihydrochloride]
ED50 (5-HT2): 0.0082 mg/kg | ED50 (5-hydroxytryptophan; [1]): 1.25 mg/kg | ED50 (5-hydroxytryptophan; [2]): 40 mg/kg | ED50 (5-hydroxytryptophan; [3]): 0.16 mg/kg

Cc1nc2c(C(N)=O)ncn2c(O)c1CCN1CCC(=C(c2ccc(F)cc2)c2ccc(F)cc2)CC1.Cl [EXAMPLE 1, 3-{2-[4-[bis(4-fluorophenyl)methylene]piperidino]ethyl}-8-carbamoyl-4-hydroxy-2-methylimidazo [1,5-a]pyrimidine hydrochloride]
ED50 (5-HT2): 0.013 mg/kg | ED50 (5-hydroxytryptophan; [7]): 2.5 mg/kg | ED50 (5-hydroxytryptophan; [8]): 0.63 mg/kg | ED50 (5-hydroxytryptophan; [9]): 0.08 mg/kg | ED50 (5-hydroxytryptophan; [4]): 10 mg/kg | ED50 (5-hydroxytryptophan; [5]): > 10 mg/kg | ED50 (5-hydroxytryptophan; [6]): 0.16 mg/kg | ID50, inhibition of the hypertensive response to phenylephrine (α1): > 5 mg/kg

Cc1nc2c(C(N)=O)ncn2c(O)c1CCCN1CCC(=C(c2ccccc2)c2ccc(F)cc2)CC1.Cl [EXAMPLE 9, 8-Carbamoyl-3-{3-[4-[(4-fluorophenyl)phenylmethylene]piperidino]propyl}-4-hydroxy-2-methylimidazo[1,5-a]-pyrimidine hydrochloride]
ID50, inhibition of the hypertensive response to phenylephrine (α1): > 5 mg/kg

Cc1ccc(C(=C2CCN(CCc3c(C)nc4c(C(N)=O)ncn4c3O)CC2)c2ccccc2)cc1.Cl [EXAMPLE 13, 8-Carbamoyl-4-hydroxy-3-{2-[4-[(4-methylphenyl)-phenylmethylene]piperidino]ethyl}-2-methylimidazo[1,5-a]-pyrimidine hydrochloride]
ED50 (5-HT2): 0.027 mg/kg | ID50, inhibition of the hypertensive response to phenylephrine (α1): 3.05 mg/kg

Cc1nc2c(C(N)=O)ncn2c(O)c1CCN1CCC(C=C(c2ccc(F)cc2)c2ccc(F)cc2)C1 (centres unmarked) [EXAMPLE 24, 3-(3-4-2,2-Bis(4-fluorophenyl)vinyl]pyrrolidino]ethyl}-8-carbamoyl-4-hydroxy-2-methylimidazo[1,5-a]-pyrimidine hydrochloride]
ID50, inhibition of the hypertensive response to phenylephrine (α1): > 5 mg/kg

Cl.Cl.O=C1CN2Cc3ccccc3CC2C(=O)N1CCN1CCC(=C(c2ccccc2)c2ccc(F)cc2)CC1 (centres unmarked) [EXAMPLE 2, 2-{2-[4-[(4-Fluorophenyl)phenylmethylene]piperidino]ethyl}-1,3,4,6,11,11a-hexahydro-1,3-dioxo-2H-pyrazino[1,2-b]-isoquinoline dihydrochloride]
ED50 (5-hydroxytryptophan; [7]): 1.25 mg/kg | ED50 (5-hydroxytryptophan; [8]): 5 mg/kg | ED50 (5-hydroxytryptophan; [9]): 1.25 mg/kg
